Literature values as cited in patent US20180228856A1, “Antibacterial combination of Basil oil and Taiwan red cypress oil for preventing drug-resistant S. aureus infections and the use thereof” (priority 2017, published 2018).
Values after ≈ are worked out from the molar mass of the structure shown.

Test system: VISA strain Z172
Details: strain characteristic of Z172

SMILES	minimum inhibitory concentration (MIC)
CN[C@H](CC(C)C)C(=O)N[C@H]1C(=O)N[C@@H](CC(N)=O)C(=O)N[C@H]2C(=O)N[C@H]3C(=O)N[C@H](C(=O)N[C@H](C(=O)O)c4cc(O)cc(O)c4-c4cc3ccc4O)[C@H](O)c3ccc(c(Cl)c3)Oc3cc2cc(c3O[C@@H]2O[C@H](CO)[C@@H](O)[C@H](O)[C@H]2O[C@H]2C[C@](C)(N)[C@H](O)[C@H](C)O2)Oc2ccc(cc2Cl)[C@H]1O [vancomycin]	4 µg/mL (≈ 2.76 µM)
CCCCCCCCCC(=O)N[C@@H](Cc1c[nH]c2ccccc12)C(=O)N[C@H](CC(N)=O)C(=O)N[C@@H](CC(=O)O)C(=O)N[C@@H]1C(=O)NCC(=O)N[C@@H](CCCN)C(=O)N[C@@H](CC(=O)O)C(=O)N[C@H](C)C(=O)N[C@@H](CC(=O)O)C(=O)NCC(=O)N[C@H](CO)C(=O)N[C@@H]([C@H](C)CC(=O)O)C(=O)N[C@@H](CC(=O)c2ccccc2N)C(=O)O[C@@H]1C [daptomycin]	> 4 µg/mL
